Test results: ChEMBL document CHEMBL3638847, “Substituted piperidine compounds and their use as orexin receptor modulators” (2015)

What was measured:
[1] = biological target: T1, Orexin/Hypocretin receptor type 1 (Homo sapiens, UniProt O43613); assay: (§1) Radioligand Binding Assay: Human Embryonic Kidney 293 cells (HEK293) stably expressing rat orexin 1 receptor(Genebank accession number NM_001525) or […] (CHO) stably expressing human orexin 1 receptor (Genebank accession number […]) were grown to confluency in DMEM (Hyclone, cat # SH30022), 10% FBS, IX Pen/Strep, IX sodium pyruvate, 10 mM HEPES, 600 ug/mL G418 and DMEM/F12 (Gibco, Cat #1 1039), 10%FBS, IX Pen/Strep, 600 ug/mL G418 media, respectively on 150 cm2 tissue culture plates, washed with 5 mM EDTA in PBS (HyClone Dulbecco's Phoshpate Buffered Saline IX with Calcium and Magnesium, Cat # SH30264.01, hereafter referred to simply as PBS) and scraped into 50 ml tubes. After centrifugation (2K xG, 5 min at 4 C), the supernatant was aspirated and the pellets frozen and stored at -80C. Cells were resuspended in PBS in the presence of 1 tablet of protease inhibitor cocktail (Roche, Cat. #1 1836145001) per 50 mL. Each cell pellet from a 15 cm plate was resuspended in 10 mL.; assay type: cell-based
T1 sequence (O43613 whole entry): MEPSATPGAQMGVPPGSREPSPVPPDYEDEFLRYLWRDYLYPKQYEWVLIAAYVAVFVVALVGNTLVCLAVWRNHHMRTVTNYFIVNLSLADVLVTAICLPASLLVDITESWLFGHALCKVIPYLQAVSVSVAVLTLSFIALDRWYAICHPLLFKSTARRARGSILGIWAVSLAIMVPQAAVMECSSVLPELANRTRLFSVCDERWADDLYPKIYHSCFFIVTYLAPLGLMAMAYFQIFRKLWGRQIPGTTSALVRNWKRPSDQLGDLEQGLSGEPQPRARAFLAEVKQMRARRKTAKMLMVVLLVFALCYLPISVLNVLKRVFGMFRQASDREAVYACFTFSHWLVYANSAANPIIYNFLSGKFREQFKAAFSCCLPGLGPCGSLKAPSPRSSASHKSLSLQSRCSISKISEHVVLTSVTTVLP

[2] = biological target: T2, Orexin/Hypocretin receptor type 1 (Rattus norvegicus, UniProt P56718); assay: as §1; assay type: cell-based
T2 sequence (P56718 whole entry): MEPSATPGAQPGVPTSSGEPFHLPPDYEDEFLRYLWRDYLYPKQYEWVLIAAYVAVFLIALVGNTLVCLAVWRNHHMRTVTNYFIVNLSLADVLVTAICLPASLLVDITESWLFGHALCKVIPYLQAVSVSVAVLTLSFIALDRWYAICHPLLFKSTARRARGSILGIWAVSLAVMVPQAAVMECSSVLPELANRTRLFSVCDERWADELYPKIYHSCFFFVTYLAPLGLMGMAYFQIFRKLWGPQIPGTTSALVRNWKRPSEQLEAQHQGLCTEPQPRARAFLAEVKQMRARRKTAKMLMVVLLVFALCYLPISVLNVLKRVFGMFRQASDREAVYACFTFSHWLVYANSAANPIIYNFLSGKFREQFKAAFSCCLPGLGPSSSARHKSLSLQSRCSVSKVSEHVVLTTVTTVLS

Orexin receptor type 2 = biological target: T3, Orexin receptor type 2 (Homo sapiens, UniProt O43614); assay: Radioligand Binding Assay: HEK293 stably expressing human orexin 2 receptor (Genebank accession numberNM_001526) were grown to confluency in DMEM (Hyclone, cat # SH30022) , 10%FBS, IX Pen/Strep, IX NaPyruvate, 10 mM HEPES, 600 ug/ml G418 media on 150 cm2 tissue culture plates, washed with 5 mM EDTA in PBS (HyClone Dulbecco's Phoshpate Buffered Saline IX with Calcium and Magnesium, Cat # SH30264.01, hereafter referred to simply as PBS) and scraped into 50 ml tubes. After centrifugation (2K xG, 5 min at 4°C), the supernatant was aspirated and the pellets frozen and stored at -80°C. Cells were resuspended in PBS in the presence of 1 tablet of protease inhibitor cocktail (Roche, Cat. #11836145001) per 50 mL. Each cell pellet from a 15 cm plate was resuspended in 10 mL, stored on ice, and homogenized for 45 sec just prior to addition to the reactions. Competition binding experiments in 96 well polypropylene plates were performed using [3H]-EMPA (Moraveck Corporation, specific activity = 29.6 Ci/mmol).
T3 sequence (O43614 whole entry): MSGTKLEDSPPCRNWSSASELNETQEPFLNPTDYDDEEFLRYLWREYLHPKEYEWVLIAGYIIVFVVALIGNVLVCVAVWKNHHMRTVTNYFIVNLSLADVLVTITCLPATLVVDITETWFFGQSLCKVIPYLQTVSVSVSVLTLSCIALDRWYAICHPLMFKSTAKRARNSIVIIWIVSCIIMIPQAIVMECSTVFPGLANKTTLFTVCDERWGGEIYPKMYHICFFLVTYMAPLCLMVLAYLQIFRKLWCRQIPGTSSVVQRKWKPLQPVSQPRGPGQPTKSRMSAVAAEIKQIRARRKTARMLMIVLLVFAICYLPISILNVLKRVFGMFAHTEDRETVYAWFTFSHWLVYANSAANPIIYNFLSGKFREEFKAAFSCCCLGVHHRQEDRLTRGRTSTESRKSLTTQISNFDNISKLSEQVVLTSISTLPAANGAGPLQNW

- Ki [1]: 26 nM
- Ki [2]: 19 nM
- Ki (Orexin receptor type 2): 91 nM
Structure (SMILES): Cc1cnc(C(=O)N2CCC[C@@H](Nc3ccc(C(F)(F)F)cn3)[C@@H]2C)c(-c2ncccn2)c1
